The source of these data is patent US20140011799A1 (Bristol-Myers Squibb Company, priority 2012, published 2014).

Where “and” joins values, the source holds several entries; their conditions need not be identical. Equal values may be shown once.

One assay has as its target T1, Endothelial lipase (EL) (Homo sapiens, UniProt Q9Y5X9).
T1 construct: HT-1080 cells that were transformed using RAGE technology (Athersys) to overexpress endogenous EL; endogenous in cells; conditioned medium used
T1 sequence (Q9Y5X9 21-500): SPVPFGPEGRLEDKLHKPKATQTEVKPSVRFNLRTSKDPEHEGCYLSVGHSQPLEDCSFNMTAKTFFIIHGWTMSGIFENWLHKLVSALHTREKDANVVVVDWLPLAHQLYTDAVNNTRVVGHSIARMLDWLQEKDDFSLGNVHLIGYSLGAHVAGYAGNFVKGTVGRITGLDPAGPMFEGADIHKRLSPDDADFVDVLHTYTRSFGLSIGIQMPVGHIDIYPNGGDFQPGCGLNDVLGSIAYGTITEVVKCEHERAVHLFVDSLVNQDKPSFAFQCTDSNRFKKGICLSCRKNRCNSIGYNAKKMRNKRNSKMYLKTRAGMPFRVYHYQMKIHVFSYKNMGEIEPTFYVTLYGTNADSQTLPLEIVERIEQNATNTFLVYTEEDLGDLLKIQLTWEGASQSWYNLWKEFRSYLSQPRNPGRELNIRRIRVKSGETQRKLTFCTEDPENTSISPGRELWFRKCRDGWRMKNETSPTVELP
Briefly: Endothelial lipase (EL) enzymatic assay, fluorescent substrate A10070 in DMPG vesicles. It is filed as biochemical. As to conditions: EL from conditioned media of HT-1080 cells; compound preincubated 30 min at 37° C; read-out: EL IC50. In a few lines: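 Vesicles prepared: A10070 dried with DMPG, resuspended in HEPES pH 8.0/NaCl/EDTA, sonicated on ice. Enzyme incubated with compound 30 min at 37° C. Reaction started with 1:10 diluted vesicles. Fluorescence (490/530 nm) followed 60 min; slope from 300–900 secs gives rate.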

A further assay concerns the target T2, hepatic lipase (HL) (Homo sapiens, UniProt P11150).
T2 construct: made in house; host or cells: COS cells (conditioned medium, partially purified)
T2 sequence (P11150 23-499): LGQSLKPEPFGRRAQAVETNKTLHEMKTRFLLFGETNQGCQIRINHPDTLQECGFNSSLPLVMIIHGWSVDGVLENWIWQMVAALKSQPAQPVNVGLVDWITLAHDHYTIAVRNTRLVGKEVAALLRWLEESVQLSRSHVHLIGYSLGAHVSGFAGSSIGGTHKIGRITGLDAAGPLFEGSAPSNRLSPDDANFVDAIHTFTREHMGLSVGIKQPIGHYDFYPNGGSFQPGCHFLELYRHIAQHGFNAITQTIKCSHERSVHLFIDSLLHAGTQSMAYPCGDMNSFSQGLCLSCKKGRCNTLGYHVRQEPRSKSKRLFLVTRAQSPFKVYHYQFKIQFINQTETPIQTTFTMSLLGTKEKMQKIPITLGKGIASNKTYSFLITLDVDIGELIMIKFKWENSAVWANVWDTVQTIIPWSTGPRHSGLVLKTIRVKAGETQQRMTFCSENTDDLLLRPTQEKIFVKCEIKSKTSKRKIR
Briefly: Hepatic lipase (HL) enzymatic assay, fluorescent substrate A10070 in DMPG vesicles. As to conditions: HL partially purified from conditioned media of COS cells; compound preincubated 30 min at 37° C; read-out: HL IC50. It is filed as biochemical. As to the method: Endothelial lipase (EL) and hepatic lipase (HL) activities were measured using a fluorescent substrate, A10070, (Invitrogen, CA) doped into an artificial vesicle containing DMPG (Avanti Polar Lipids) as the excipient. Vesicles were prepared by combining 571 μL of 29 mM DMPG in a 1:1 mixture of MeOH and CHCl3 with 2000 μL of 1 mM A10070 in a 1:1 mixture of MeOH and CHCl3. The mixture was dried under nitrogen in multiple vials then resuspended in 20 mL total volume of 50 mM HEPES pH 8.0 buffer containing 50 mM NaCl and 0.2 mM EDTA. The sample was allowed to sit at room temperature for 15 min and then was sonicated 3×4 mins on ice with a Branson Sonicator using duty cycle 1. This preparation provides vesicles with a mole fraction of 0.11 for the FRET substrate.
The enzymatic assay was measured using 384-well white Optiplates. Each well contained 20 μL of assay buffer (50 mM HEPES pH 8.0, 50 mM NaCl and 1 mM CaCl2) and 0.25 μL of a DMSO solution containing a compound of interest. EL or HL (10 μL) was added and allowed to incubate with the compound for 30 min at 37° C. The source of EL was conditioned media obtained from HT-1080 cells that were transformed using RAGE technology (Athersys) to overexpress endogenous EL, and HL was partially purified from conditioned media obtained from COS cells overexpressing HL. The reaction was started by the addition of 10 μL of a 1:10 dilution of vesicles. The final total reaction volume was […]. The reaction rates were measured on a Gemini plate reader with an excitation wavelength of 490 nm and an emission wavelength of 530 nm. Readings were taken over a period of 60 minutes, and the slope between 300 and 900 secs of the readout was used to calculate the rate of the reaction.

As to `NS(=O)(=O)NCc1nnc(C(c2nc3ccc(-c4ccccc4)cc3s2)S(=O)(=O)CC(O)CO)o1` (mixture of isomers) [Example 171, N-((5-(((2,3-Dihydroxypropyl)sulfonyl)(6-phenyl-1,3-benzothiazol-2-yl)methyl)-1,3,4-oxadiazol-2-yl)methyl)sulfamide], the IC50 at Endothelial lipase (EL) and on hepatic lipase (HL) was less than 10 nM throughout.

With `Cn1cc(-c2ccc3nc(C(c4nnc(CNC(=O)OC(C)(C)C)o4)S(C)(=O)=O)sc3c2)cn1` (stereo not shown) [Example 98, tert-butyl ((5-((6-(1-methyl-1H-pyrazol-4-yl)-1,3-benzothiazol-2-yl)(methylsulfonyl)methyl)-1,3,4-oxadiazol-2-yl)methyl) carbamate], the values for the half-maximal inhibitory concentration (IC50) on Endothelial lipase (EL) and on hepatic lipase (HL) were 168 nM and greater than 25000 nM, respectively. Consider `CS(=O)(=O)C(c1nnc(CC2SC(=O)NC2=O)o1)c1nc2ccc(C3=CCOCC3)cc2s1` (stereo not shown) [Example 99, 5-((5-((6-(3,6-dihydro-2H-pyran-4-yl)-1,3-benzothiazol-2-yl)(methylsulfonyl)methyl)-1,3,4-oxadiazol-2-yl)methyl)-1,3-thiazolidine-2,4-dione], for which the figures for the IC50 at Endothelial lipase (EL) and on hepatic lipase (HL) were less than 10 nM and 142 nM, respectively.

Regarding `CS(=O)(=O)C(c1nnc(CC2SC(=O)NC2=O)o1)c1nc2ccc(Br)cc2s1` (stereo not shown) [Example 100, 5-((5-((6-bromo-1,3-benzothiazol-2-yl)(methylsulfonyl)methyl)-1,3,4-oxadiazol-2-yl)methyl)-1,3-thiazolidine-2,4-dione], the figures for the IC50 at Endothelial lipase (EL) and at hepatic lipase (HL) were 77 nM and 291 nM, respectively. In the same order, the values of `CS(=O)(=O)C(c1nnc(CC2SC(=O)NC2=O)o1)c1nc2ccc(-c3ccc(=O)n(Cc4ccccc4)c3)cc2s1` (stereo not shown) [Example 101, 5-((5-((6-(1-benzyl-6-oxo-1,6-dihydro-3-pyridinyl)-1,3-benzothiazol-2-yl)(methylsulfonyl)methyl)-1,3,4-oxadiazol-2-yl)methyl)-1,3-thiazolidine-2,4-dione] are less than 10 nM and 160 nM. `Cc1nc(C)c(-c2ccc3nc(C(c4nnc(CC5SC(=O)NC5=O)o4)S(C)(=O)=O)sc3c2)s1` (stereo not shown) [Example 102, 5-((5-((6-(2,4-dimethyl-1,3-thiazol-5-yl)-1,3-benzothiazol-2-yl)(methylsulfonyl)methyl)-1,3,4-oxadiazol-2-yl)methyl)-1,3-thiazolidine-2,4-dione]: the IC50 at Endothelial lipase (EL) and on hepatic lipase (HL) was less than 10 nM in each case. Take `CS(=O)(=O)C(c1nnc(CC2SC(=O)NC2=O)o1)c1nc2ccc(-c3ccnc(C#N)c3)cc2s1` (stereo not shown) [Example 103, 4-(2-((5-((2,4-dioxo-1,3-thiazolidin-5-yl)methyl)-1,3,4-oxadiazol-2-yl)(methylsulfonyl)methyl)-1,3-benzothiazol-6-yl)-2-pyridinecarbonitrile]: the IC50 (as a rule, the concentration at which inhibition is half-maximal) is less than 10 nM at Endothelial lipase (EL); < 10 nM and 36 nM on hepatic lipase (HL). Regarding `CS(=O)(=O)C(c1nnc(CC2SC(=O)NC2=O)o1)c1nc2ccc(-c3cnc(OCc4ccccc4)nc3)cc2s1` (stereo not shown) [Example 104, 5-((5-((6-(2-(benzyloxy)-5-pyrimidinyl)-1,3-benzothiazol-2-yl)(methylsulfonyl)methyl)-1,3,4-oxadiazol-2-yl)methyl)-1,3-thiazolidine-2,4-dione], the IC50 at Endothelial lipase (EL) was less than 10 nM; on hepatic lipase (HL) it was < 10 nM and 11 nM.

For `CS(=O)(=O)C(c1nnc(CC2SC(=O)NC2=O)o1)c1nc2ccc(-c3ccc(C(=O)OCc4ccccc4)cc3)cc2s1` (stereo not shown) [Example 105, benzyl 4-(2-((5-((2,4-dioxo-1,3-thiazolidin-5-yl)methyl)-1,3,4-oxadiazol-2-yl)(methylsulfonyl)methyl)-1,3-benzothiazol-6-yl)benzoate], the IC50 at Endothelial lipase (EL) and at hepatic lipase (HL) was less than 10 nM in each case. For the molecule `O=C1NC(=O)C(Cc2nnc(C(c3nc4ccc(-c5ccc(C(=O)N6CCOCC6)cc5)cc4s3)S(=O)(=O)CCN3CCOCC3)o2)S1` (stereo not shown) [Example 106, 5-((5-((6-(4-(4-morpholinylcarbonyl)phenyl)-1,3-benzothiazol-2-yl)((2-(4-morpholinyl)ethyl)sulfonyl)methyl)-1,3,4-oxadiazol-2-yl)methyl)-1,3-thiazolidine-2,4-dione], the half-inhibitory concentration (IC50) on Endothelial lipase (EL) is less than 10 nM; on hepatic lipase (HL) it was 1340 nM. Consider `CC(C)(C)OC(=O)Cc1nnc(C(c2nc3ccc(-c4ccc(C(=O)N5CCOCC5)cc4)cc3s2)S(C)(=O)=O)o1` (stereo not shown) [Example 107, tert-butyl (5-((methylsulfonyl)(6-(4-(4-morpholinylcarbonyl)phenyl)-1,3-benzothiazol-2-yl)methyl)-1,3,4-oxadiazol-2-yl)acetate], for which the IC50 on Endothelial lipase (EL) is 28 nM; on hepatic lipase (HL), 13 nM. In the same order, the values of `CC(C)(C)OC(=O)Cc1nnc(C(c2nc3ccc(-c4ccc(C(=O)N5CCOCC5)cc4)cc3s2)S(=O)(=O)Cc2ccccc2)o1` (stereo not shown) [Example 108, tert-butyl (5-((benzylsulfonyl)(6-(4-(4-morpholinylcarbonyl)phenyl)-1,3-benzothiazol-2-yl)methyl)-1,3,4-oxadiazol-2-yl)acetate] are 24 nM and 14 nM. For the molecule `C[C@]1(Cc2nnc(C(c3nc4ccc(-c5ccc(C(=O)N6CCOCC6)cc5)cc4s3)S(C)(=O)=O)o2)OC(=O)NC1=O` (stereo partly drawn) [Example 109, (5R)-5-methyl-5-((5-((methylsulfonyl)(6-(4-(4-morpholinylcarbonyl)phenyl)-1,3-benzothiazol-2-yl)methyl)-1,3,4-oxadiazol-2-yl)methyl)-1,3-oxazolidine-2,4-dione], the values for the IC50 at Endothelial lipase (EL) and at hepatic lipase (HL) were less than 10 nM and 764 nM, respectively. Take `CS(=O)(=O)C(c1nnc(C[C@H]2NS(=O)(=O)NC2=O)o1)c1nc2ccc(-c3ccc(C(=O)N4CCOCC4)cc3)cc2s1` (stereo partly drawn) [Example 110, (4R)-4-((5-((methylsulfonyl) (6-(4-(4-morpholinylcarbonyl)phenyl)-1,3-benzothiazol-2-yl)methyl)-1,3,4-oxadiazol-2-yl)methyl)-1,2,5-thiadiazolidin-3-one 1,1-dioxide]: the IC50 at Endothelial lipase (EL) came to 19 nM; on hepatic lipase (HL), 3240 nM. For `CS(=O)(=O)C(c1nnc(C[C@@H]2NS(=O)(=O)NC2=O)o1)c1nc2ccc(-c3ccc(C(=O)N4CCOCC4)cc3)cc2s1` (stereo partly drawn) [Example 111, (4S)-4-((5-((methylsulfonyl) (6-(4-(4-morpholinylcarbonyl)phenyl)-1,3-benzothiazol-2-yl)methyl)-1,3,4-oxadiazol-2-yl)methyl)-1,2,5-thiadiazolidin-3-one 1,1-dioxide], in that order: less than 10 nM and 629 nM. With `CC(O)(c1nnc(CNS(N)(=O)=O)o1)c1nc2ccc(-c3ccc(F)nc3)cc2s1` (stereo not shown) [Reference 4, N-((5-(1-(6-(6-Fluoro-3-pyridinyl)-1,3-benzothiazol-2-yl)-1-hydroxyethyl)-1,3,4-oxadiazol-2-yl)methyl)sulfamide, reference compound], at Endothelial lipase (EL), the IC50 is 14900 nM.
